Experiments:
Assay in all cases: KINOMEscan
Format in all cases: binding
Details in all cases: 1.0 µM
BRAF = target: T1, BRAF (Homo sapiens, UniProt P15056)
T1 construct: purchased Eurofins/DiscoverX KINOMEscan scanMAX
Experimental: (§1) Kinase retention to the immobilized ligand is then measured using quantitative real-time PCR for each kinase-specific DNA barcode.

CAMKK2 = target: T2, CAMKK2 (Homo sapiens, UniProt Q96RR4)
T2 construct: purchased Eurofins/DiscoverX KINOMEscan scanMAX
Experimental: as §1

MLK3 = target: T3, MLK3 (Homo sapiens, UniProt Q16584)
T3 construct: purchased Eurofins/DiscoverX KINOMEscan scanMAX
Experimental: as §1

RIPK1 = target: T4, RIPK1 (Homo sapiens, UniProt Q13546)
T4 construct: purchased Eurofins/DiscoverX KINOMEscan scanMAX
Experimental: as §1

CAMK1D = target: T5, CAMK1D (Homo sapiens, UniProt Q8IU85)
T5 construct: purchased Eurofins/DiscoverX KINOMEscan scanMAX
Experimental: as §1

TEC = target: T6, TEC (Homo sapiens, UniProt P42680)
T6 construct: purchased Eurofins/DiscoverX KINOMEscan scanMAX
Experimental: as §1

NDR2 = target: T7, NDR2 (Homo sapiens, UniProt Q9Y2H1)
T7 construct: purchased Eurofins/DiscoverX KINOMEscan scanMAX
Experimental: as §1

AURKA = target: T8, AURKA (Homo sapiens, UniProt O14965)
T8 construct: purchased Eurofins/DiscoverX KINOMEscan scanMAX
Experimental: as §1

TRPM6 = target: T9, TRPM6 (Homo sapiens, UniProt Q9BX84)
T9 construct: DNA tag (qPCR barcode); purchased Eurofins/DiscoverX KINOMEscan scanMAX
Experimental: as §1

RIPK2 = target: T10, RIPK2 (Homo sapiens, UniProt O43353)
T10 construct: purchased Eurofins/DiscoverX KINOMEscan scanMAX
Experimental: as §1

ABL1-phosphorylated = target: T11, ABL1-phosphorylated (Homo sapiens, UniProt P00519)
T11 construct: purchased Eurofins/DiscoverX KINOMEscan scanMAX
Experimental: as §1

MAPKAPK5 = target: T12, MAPKAPK5 (Homo sapiens, UniProt Q8IW41)
T12 construct: purchased Eurofins/DiscoverX KINOMEscan scanMAX
Experimental: as §1

YANK3 = target: T13, YANK3 (Homo sapiens, UniProt Q86UX6)
T13 construct: purchased Eurofins/DiscoverX (KINOMEscan scanMAX service)
Experimental: as §1

ACVR2B = target: T14, ACVR2B (Homo sapiens, UniProt Q13705)
T14 construct: purchased Eurofins/DiscoverX KINOMEscan scanMAX
Experimental: as §1

ERN1 = target: T15, ERN1 (Homo sapiens, UniProt O75460)
T15 construct: purchased Eurofins/DiscoverX KINOMEscan scanMAX
Experimental: as §1

FLT1 = target: T16, FLT1 (Homo sapiens, UniProt P17948)
T16 construct: purchased Eurofins/DiscoverX KINOMEscan scanMAX
Experimental: as §1

ZAK = target: T17, ZAK (Homo sapiens, UniProt Q9NYL2)
T17 construct: purchased Eurofins/DiscoverX (KINOMEscan scanMAX service)
Experimental: as §1

SRC = target: T18, SRC (Homo sapiens, UniProt P12931)
T18 construct: purchased Eurofins/DiscoverX KINOMEscan scanMAX
Experimental: as §1

ERBB3 = target: T19, ERBB3 (Homo sapiens, UniProt P21860)
T19 construct: purchased Eurofins/DiscoverX KINOMEscan scanMAX
Experimental: as §1

PRKD3 = target: T20, PRKD3 (Homo sapiens, UniProt O94806)
T20 construct: purchased Eurofins/DiscoverX KINOMEscan scanMAX
Experimental: as §1

WEE2 = target: T21, WEE2 (Homo sapiens, UniProt P0C1S8)
T21 construct: DNA tag (qPCR barcode); purchased Eurofins/DiscoverX KINOMEscan scanMAX
Experimental: as §1

FLT3(K663Q) = target: T22, FLT3(K663Q) (Homo sapiens, UniProt P36888, K663Q)
T22 construct: purchased Eurofins/DiscoverX KINOMEscan scanMAX
Experimental: as §1

DRAK1 = target: T23, DRAK1 (Homo sapiens, UniProt Q9UEE5)
T23 construct: purchased Eurofins/DiscoverX KINOMEscan scanMAX
Experimental: as §1

TIE1 = target: T24, TIE1 (Homo sapiens, UniProt P35590)
T24 construct: purchased Eurofins/DiscoverX KINOMEscan scanMAX
Experimental: as §1

CIT = target: T25, CIT (Homo sapiens, UniProt O14578)
T25 construct: purchased Eurofins/DiscoverX KINOMEscan scanMAX
Experimental: as §1

AKT2 = target: T26, AKT2 (Homo sapiens, UniProt P31751)
T26 construct: purchased Eurofins/DiscoverX KINOMEscan scanMAX
Experimental: as §1

[1] = target: T27, RPS6KA4(Kin.Dom.2-C-terminal) (Homo sapiens, UniProt O75676)
T27 construct: RPS6KA4(Kin.Dom.2-C-terminal); purchased Eurofins/DiscoverX KINOMEscan scanMAX
Experimental: as §1

FLT3-autoinhibited = target: T28, FLT3-autoinhibited (Homo sapiens, UniProt P36888)
T28 construct: purchased Eurofins/DiscoverX KINOMEscan scanMAX
Experimental: as §1

[2] = target: T29, RSK2(Kin.Dom.1-N-terminal) (Homo sapiens, UniProt P51812)
T29 construct: RSK2(Kin.Dom.1-N-terminal); purchased Eurofins/DiscoverX KINOMEscan scanMAX
Experimental: as §1

ACVRL1 = target: T30, ACVRL1 (Homo sapiens, UniProt P37023)
T30 construct: purchased Eurofins/DiscoverX KINOMEscan scanMAX
Experimental: as §1

PLK3 = target: T31, PLK3 (Homo sapiens, UniProt Q9H4B4)
T31 construct: purchased Eurofins/DiscoverX KINOMEscan scanMAX
Experimental: as §1

[3] = target: T32, TYK2(JH1domain-catalytic) (Homo sapiens, UniProt P29597)
T32 construct: TYK2(JH1domain-catalytic); DNA tag (qPCR barcode); purchased Eurofins/DiscoverX KINOMEscan scanMAX
Experimental: as §1

RIOK2 = target: T33, RIOK2 (Homo sapiens, UniProt Q9BVS4)
T33 construct: purchased Eurofins/DiscoverX KINOMEscan scanMAX
Experimental: as §1

AURKB = target: T34, AURKB (Homo sapiens, UniProt Q96GD4)
T34 construct: purchased Eurofins/DiscoverX KINOMEscan scanMAX
Experimental: as §1

EPHA3 = target: T35, EPHA3 (Homo sapiens, UniProt P29320)
T35 construct: purchased Eurofins/DiscoverX KINOMEscan scanMAX
Experimental: as §1

EPHA2 = target: T36, EPHA2 (Homo sapiens, UniProt P29317)
T36 construct: purchased Eurofins/DiscoverX KINOMEscan scanMAX
Experimental: as §1

CDK9 = target: T37, CDK9 (Homo sapiens, UniProt P50750)
T37 construct: purchased Eurofins/DiscoverX KINOMEscan scanMAX
Experimental: as §1

EPHA5 = target: T38, EPHA5 (Homo sapiens, UniProt P54756)
T38 construct: purchased Eurofins/DiscoverX KINOMEscan scanMAX
Experimental: as §1

CHEK2 = target: T39, CHEK2 (Homo sapiens, UniProt O96017)
T39 construct: purchased Eurofins/DiscoverX KINOMEscan scanMAX
Experimental: as §1

MST2 = target: T40, MST2 (Homo sapiens, UniProt Q13188)
T40 construct: purchased Eurofins/DiscoverX KINOMEscan scanMAX
Experimental: as §1

CHEK1 = target: T41, CHEK1 (Homo sapiens, UniProt O14757)
T41 construct: purchased Eurofins/DiscoverX KINOMEscan scanMAX
Experimental: as §1

T14 sequence (Q13705 19-512): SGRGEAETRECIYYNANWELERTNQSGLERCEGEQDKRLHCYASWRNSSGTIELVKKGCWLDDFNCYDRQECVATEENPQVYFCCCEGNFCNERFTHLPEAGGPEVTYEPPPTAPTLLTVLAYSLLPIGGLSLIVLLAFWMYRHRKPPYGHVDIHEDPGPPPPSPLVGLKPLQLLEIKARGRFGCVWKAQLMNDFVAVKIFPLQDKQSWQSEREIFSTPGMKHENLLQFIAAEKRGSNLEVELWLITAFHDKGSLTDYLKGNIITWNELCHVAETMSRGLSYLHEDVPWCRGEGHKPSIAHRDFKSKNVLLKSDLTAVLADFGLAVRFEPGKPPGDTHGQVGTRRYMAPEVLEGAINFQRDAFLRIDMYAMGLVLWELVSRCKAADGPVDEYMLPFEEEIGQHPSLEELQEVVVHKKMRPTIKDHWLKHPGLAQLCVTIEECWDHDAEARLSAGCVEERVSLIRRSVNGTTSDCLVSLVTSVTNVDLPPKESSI
T37 sequence (P50750 whole entry): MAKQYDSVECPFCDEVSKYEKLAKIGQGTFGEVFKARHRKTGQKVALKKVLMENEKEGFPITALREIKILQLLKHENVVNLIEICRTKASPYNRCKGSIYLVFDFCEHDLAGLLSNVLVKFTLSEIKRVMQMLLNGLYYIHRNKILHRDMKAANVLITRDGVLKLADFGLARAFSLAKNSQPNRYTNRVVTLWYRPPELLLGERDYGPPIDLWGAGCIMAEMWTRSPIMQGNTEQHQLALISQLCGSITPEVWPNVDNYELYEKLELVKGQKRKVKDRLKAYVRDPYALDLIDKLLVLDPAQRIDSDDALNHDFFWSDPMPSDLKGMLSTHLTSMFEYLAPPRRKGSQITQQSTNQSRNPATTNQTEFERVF
T23 sequence (Q9UEE5 whole entry): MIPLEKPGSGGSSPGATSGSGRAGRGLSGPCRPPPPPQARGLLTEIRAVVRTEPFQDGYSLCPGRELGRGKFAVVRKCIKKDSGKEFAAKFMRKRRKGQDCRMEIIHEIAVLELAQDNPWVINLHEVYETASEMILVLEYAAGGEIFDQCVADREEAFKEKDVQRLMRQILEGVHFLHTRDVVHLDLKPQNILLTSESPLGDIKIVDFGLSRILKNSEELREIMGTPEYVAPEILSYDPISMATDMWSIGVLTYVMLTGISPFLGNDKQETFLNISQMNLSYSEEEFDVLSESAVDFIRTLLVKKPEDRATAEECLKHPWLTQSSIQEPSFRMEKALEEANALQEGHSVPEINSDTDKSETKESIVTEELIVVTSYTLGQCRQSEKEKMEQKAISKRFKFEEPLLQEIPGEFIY
T15 sequence (O75460 19-977): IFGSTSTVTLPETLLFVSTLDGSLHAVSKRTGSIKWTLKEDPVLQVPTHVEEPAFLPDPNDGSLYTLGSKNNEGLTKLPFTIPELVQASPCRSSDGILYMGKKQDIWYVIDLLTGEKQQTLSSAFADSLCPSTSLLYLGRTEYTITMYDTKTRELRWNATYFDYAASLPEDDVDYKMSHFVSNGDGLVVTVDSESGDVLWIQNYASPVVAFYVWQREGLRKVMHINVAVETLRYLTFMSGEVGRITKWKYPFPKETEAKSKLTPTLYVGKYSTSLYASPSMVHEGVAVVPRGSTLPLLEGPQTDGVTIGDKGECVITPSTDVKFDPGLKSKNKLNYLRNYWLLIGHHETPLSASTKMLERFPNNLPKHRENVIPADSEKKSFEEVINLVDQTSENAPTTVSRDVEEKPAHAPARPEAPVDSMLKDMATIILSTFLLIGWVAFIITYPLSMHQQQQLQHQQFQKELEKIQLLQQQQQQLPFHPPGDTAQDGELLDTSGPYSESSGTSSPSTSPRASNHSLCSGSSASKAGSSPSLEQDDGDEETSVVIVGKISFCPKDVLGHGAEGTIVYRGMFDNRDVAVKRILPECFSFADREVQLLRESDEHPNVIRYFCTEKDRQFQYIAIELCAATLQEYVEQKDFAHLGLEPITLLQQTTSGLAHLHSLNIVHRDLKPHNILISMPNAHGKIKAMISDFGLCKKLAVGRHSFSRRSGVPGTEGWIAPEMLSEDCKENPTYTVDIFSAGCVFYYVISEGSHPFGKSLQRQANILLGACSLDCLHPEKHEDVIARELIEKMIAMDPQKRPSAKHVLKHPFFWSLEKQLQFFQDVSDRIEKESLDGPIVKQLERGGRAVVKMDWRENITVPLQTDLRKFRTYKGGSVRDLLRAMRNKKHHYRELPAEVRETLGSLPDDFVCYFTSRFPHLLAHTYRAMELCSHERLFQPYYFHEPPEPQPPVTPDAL
T1 sequence (P15056 whole entry): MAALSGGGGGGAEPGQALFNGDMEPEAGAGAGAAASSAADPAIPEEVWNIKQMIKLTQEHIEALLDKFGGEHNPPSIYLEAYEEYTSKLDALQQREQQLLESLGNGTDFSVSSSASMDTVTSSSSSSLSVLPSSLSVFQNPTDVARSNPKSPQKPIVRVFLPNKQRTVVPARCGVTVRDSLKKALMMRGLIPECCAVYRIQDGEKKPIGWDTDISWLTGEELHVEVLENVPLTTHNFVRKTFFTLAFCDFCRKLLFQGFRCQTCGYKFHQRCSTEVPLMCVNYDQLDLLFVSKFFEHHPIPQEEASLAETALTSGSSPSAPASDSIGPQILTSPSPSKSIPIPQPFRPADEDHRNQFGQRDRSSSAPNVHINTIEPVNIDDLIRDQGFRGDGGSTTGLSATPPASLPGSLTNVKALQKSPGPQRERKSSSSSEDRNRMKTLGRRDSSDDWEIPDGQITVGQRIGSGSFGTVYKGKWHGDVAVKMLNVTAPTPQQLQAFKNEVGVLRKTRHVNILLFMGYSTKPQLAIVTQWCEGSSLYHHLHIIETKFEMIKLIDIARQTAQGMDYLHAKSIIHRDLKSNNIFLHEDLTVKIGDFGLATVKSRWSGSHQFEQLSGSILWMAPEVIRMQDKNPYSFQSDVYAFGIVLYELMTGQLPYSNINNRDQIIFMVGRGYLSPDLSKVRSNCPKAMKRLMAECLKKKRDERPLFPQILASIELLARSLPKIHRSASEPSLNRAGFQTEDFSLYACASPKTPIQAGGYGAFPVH
T7 sequence (Q9Y2H1 whole entry): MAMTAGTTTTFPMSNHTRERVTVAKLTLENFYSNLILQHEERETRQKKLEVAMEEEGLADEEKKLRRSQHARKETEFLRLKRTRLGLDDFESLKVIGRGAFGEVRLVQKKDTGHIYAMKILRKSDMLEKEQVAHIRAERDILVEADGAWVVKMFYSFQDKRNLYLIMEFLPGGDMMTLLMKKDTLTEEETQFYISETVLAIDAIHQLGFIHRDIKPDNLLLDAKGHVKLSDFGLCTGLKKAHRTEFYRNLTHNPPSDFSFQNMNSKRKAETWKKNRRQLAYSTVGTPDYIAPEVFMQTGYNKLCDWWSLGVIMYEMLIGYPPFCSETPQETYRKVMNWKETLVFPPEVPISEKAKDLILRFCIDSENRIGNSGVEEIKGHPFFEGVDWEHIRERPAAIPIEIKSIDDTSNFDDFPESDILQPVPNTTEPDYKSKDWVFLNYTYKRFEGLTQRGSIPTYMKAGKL
T34 sequence (Q96GD4 whole entry): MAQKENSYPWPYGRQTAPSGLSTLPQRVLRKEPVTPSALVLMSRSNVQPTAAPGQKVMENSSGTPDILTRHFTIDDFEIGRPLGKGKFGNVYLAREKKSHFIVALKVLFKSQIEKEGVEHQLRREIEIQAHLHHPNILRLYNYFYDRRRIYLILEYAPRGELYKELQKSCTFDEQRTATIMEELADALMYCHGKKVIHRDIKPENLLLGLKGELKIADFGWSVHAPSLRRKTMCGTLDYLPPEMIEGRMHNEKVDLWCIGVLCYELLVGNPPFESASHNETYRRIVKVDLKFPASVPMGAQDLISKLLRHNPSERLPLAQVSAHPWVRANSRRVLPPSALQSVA
T13 sequence (Q86UX6 whole entry): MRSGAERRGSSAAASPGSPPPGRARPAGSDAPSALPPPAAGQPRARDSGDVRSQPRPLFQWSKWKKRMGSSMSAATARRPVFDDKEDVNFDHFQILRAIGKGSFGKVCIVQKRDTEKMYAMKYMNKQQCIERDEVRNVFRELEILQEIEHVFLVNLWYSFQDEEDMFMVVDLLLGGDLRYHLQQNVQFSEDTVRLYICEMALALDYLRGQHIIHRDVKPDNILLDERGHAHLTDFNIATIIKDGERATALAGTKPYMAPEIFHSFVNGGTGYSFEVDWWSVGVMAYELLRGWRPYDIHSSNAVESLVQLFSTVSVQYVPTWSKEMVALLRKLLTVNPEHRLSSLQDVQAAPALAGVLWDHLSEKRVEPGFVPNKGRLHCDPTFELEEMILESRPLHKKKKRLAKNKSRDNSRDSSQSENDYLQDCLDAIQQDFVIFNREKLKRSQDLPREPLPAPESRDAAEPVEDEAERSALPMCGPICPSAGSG
T5 sequence (Q8IU85 whole entry): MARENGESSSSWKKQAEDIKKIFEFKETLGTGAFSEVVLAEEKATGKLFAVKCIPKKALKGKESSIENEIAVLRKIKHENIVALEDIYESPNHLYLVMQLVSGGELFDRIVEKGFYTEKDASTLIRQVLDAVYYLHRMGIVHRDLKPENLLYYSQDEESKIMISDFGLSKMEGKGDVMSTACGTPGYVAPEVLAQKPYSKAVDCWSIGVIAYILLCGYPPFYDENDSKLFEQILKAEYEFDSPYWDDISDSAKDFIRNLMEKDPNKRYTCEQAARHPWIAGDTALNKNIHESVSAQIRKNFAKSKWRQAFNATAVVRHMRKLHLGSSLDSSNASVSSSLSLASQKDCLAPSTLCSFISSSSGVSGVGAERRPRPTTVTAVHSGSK
T27 sequence (O75676 411-674 limits assumed): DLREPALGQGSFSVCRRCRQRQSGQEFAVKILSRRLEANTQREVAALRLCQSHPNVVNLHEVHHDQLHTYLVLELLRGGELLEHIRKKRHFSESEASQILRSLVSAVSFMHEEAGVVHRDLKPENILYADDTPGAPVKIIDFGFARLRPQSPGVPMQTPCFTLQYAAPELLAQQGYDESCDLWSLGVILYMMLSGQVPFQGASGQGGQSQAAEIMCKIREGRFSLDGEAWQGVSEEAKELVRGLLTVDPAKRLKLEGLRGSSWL

**Q.** What does the source list for `CN1CCN(C2CCC(n3cc(-c4ccc(Oc5ccccc5)cc4)c4c(N)ncnc43)CC2)CC1` (centres unmarked) [A-419259]?
**A.** % Control (BRAF): 66%; % Control (CAMKK2): 100%; % Control (MLK3): 100%; % Control (RIPK1): 100%; % Control (CAMK1D): 97%; % Control (TEC): 9%; % Control (NDR2): 80%; % Control (AURKA): 36%; % Control (TRPM6): 100%; % Control (RIPK2): 3.6%; % Control (ABL1-phosphorylated): 0.25%; % Control (MAPKAPK5): 100%; % Control (YANK3): 100%; % Control (ACVR2B): 100%; % Control (ERN1): 82%; % Control (FLT1): 29%; % Control (ZAK): 13%; % Control (SRC): 0.1%; % Control (ERBB3): 0.2%; % Control (PRKD3): 17%; % Control (WEE2): 90%; % Control (FLT3(K663Q)): 5.6%; % Control (DRAK1): 65%; % Control (TIE1): 25%; % Control (CIT): 79%; % Control (AKT2): 92%; % Control [1]: 99%; % Control (FLT3-autoinhibited): 3.4%; % Control [2]: 16%; % Control (ACVRL1): 100%; % Control (PLK3): 72%; % Control [3]: 100%; % Control (RIOK2): 100%; % Control (AURKB): 100%; % Control (EPHA3): 95%; % Control (EPHA2): 100%; % Control (CDK9): 65%; % Control (EPHA5): 80%; % Control (CHEK2): 40%; % Control (MST2): 82%; % Control (CHEK1): 54%
